Assay results taken from PubChem BioAssay (NCI).
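Where inhibition never reached the appropriate level, the endpoint shown equals the highest concentration tested. Otherwise, values were interpolated linearly from a five-concentration, 48-hour dose response in 96-well plates. GI50 marks 50% less growth. The concentration for full growth arrest is given as TGI.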

What was measured:
Assay in all cases: growth of human tumour cells (NCI), 48 h
COLO 205 colon = system: COLO 205 colon
U251 CNS = system: U251 CNS
SN12C renal = system: SN12C renal
UACC-62 melanoma = system: UACC-62 melanoma
HOP-92 NSCLC = system: HOP-92 NSCLC
KM12 colon = system: KM12 colon
RPMI-8226 leukemia = system: RPMI-8226 leukemia
OVCAR-3 ovarian = system: OVCAR-3 ovarian
NCI-H23 lung = system: NCI-H23 lung
RXF 393 renal = system: RXF 393 renal
SNB-75 CNS = system: SNB-75 CNS
CCRF-CEM leukemia = system: CCRF-CEM leukemia
MALME-3M melanoma = system: MALME-3M melanoma
A549 NSCLC = system: A549 NSCLC
UO-31 renal = system: UO-31 renal
NCI-H460 lung = system: NCI-H460 lung
HS 578T breast = system: HS 578T breast
BT-549 breast = system: BT-549 breast

Row | Structure (SMILES) | TGI (COLO 205 colon) [µM] | TGI (U251 CNS) [µM] | TGI (SN12C renal) [µM] | TGI (UACC-62 melanoma) [µM] | TGI (HOP-92 NSCLC) [µM] | TGI (KM12 colon) [µM] | TGI (RPMI-8226 leukemia) [µM] | TGI (OVCAR-3 ovarian) [µM] | TGI (NCI-H23 lung) [µM] | TGI (RXF 393 renal) [µM] | TGI (SNB-75 CNS) [µM] | TGI (CCRF-CEM leukemia) [µM] | TGI (MALME-3M melanoma) [µM] | TGI (A549 NSCLC) [µM] | TGI (UO-31 renal) [µM] | TGI (NCI-H460 lung) [µM] | TGI (HS 578T breast) [µM] | GI50 (SNB-75 CNS) [µM] | GI50 (CCRF-CEM leukemia) [µM] | TGI (BT-549 breast) [µM]
1 | CCOC(=O)C(C(=O)OCC)c1ccc([N+](=O)[O-])o1 | 10.4 | 36.8 | 32.2 | 35.9 | 15 | 33.9 | 23.6 | 15.8 | 32.3 | 24.9 | 37.3 | > 22.8 | 17.6 | 43.4 | 29 | 44.9 |  |  |  | 
2 | C=C/C(C)=C\CC1[C@](C)(O)CC[C@H]2C(C)(C)C(O)CC[C@]12C (stereo not given in full) | > 100 | > 100 | > 100 | > 100 | > 100 | > 100 | > 100 | > 100 | > 100 | > 100 | > 100 | > 100 | > 100 | > 100 | > 100 | > 100 | > 100 |  |  | 
3 | O=C(Nc1cccc(C(F)(F)F)c1)C(=O)C1NC(=S)NC1=O (stereo not given) | > 100 |  | > 100 | > 100 | > 100 | > 100 | > 100 | > 100 | > 100 | > 100 | > 100 | > 100 | > 100 | > 100 | > 100 | > 100 |  |  |  | 
4 | O=C1NC(=O)C(C(=O)C(=O)Nc2ccc(Cl)cc2Cl)C(=O)N1 | > 100 | > 100 |  | > 100 | > 100 | > 100 | > 100 | > 100 |  |  |  | > 100 | > 100 | > 100 | > 100 | > 100 |  |  |  | 
5 | O=c1c2ccccc2nc2n1-c1ccccc1SC2 | > 100 | > 100 | > 100 | > 100 | > 100 | > 100 | 71.9 | > 100 | > 100 | > 100 | 56.2 | > 100 | > 100 | > 100 | > 100 | > 100 |  |  |  | 
6 | COc1ccc2nc3c([N+](=O)[O-])ccc(NCCCN(C)C)c3c(NCCCN(C)C)c2c1 |  |  | 2.63 | > 10 | > 10 | 2.54 | 2.53 |  | 3.46 | 2.02 | 3.49 | 2.4 | > 10 | 3.43 |  |  |  |  |  | 
7 | CCOP12(OCC)NC(=O)OC1(C(F)(F)F)c1ccccc1O2 (stereo not given) |  |  | > 100 | > 100 |  | > 100 |  | > 100 | > 100 | > 100 | > 100 | > 100 | > 100 | > 100 | > 100 | > 100 |  |  |  | 
8 | Cc1ccc(C(c2c(O)c3ccccc3n(-c3ccccc3)c2=O)c2c(O)c3ccccc3n(-c3ccccc3)c2=O)cc1 | > 100 | > 100 | > 100 |  | > 100 | > 100 | > 100 | > 100 | > 100 | > 100 |  | > 100 | > 100 | > 100 | > 100 |  |  |  |  | 
9 | [N-]=[N+]=Nc1c(Cl)c(Cl)nc2ccccc12 | > 100 |  | > 100 | > 100 | > 100 | > 100 | > 100 | > 100 | > 100 | > 100 | > 100 | > 100 | > 100 | > 100 | > 100 | > 100 | > 100 |  |  | 
10 | NC(=O)/C(=N\NC(=O)C[n+]1ccccc1)C1NC(=O)NC1=O (stereo not given) | > 100 |  | > 100 | > 100 | > 100 | > 100 | > 100 | > 100 | > 100 | > 100 | > 100 | > 100 | > 100 | > 100 | > 100 | > 100 |  |  |  | 
11 | O=C1/C(=C/c2ccco2)N=C2Sc3c(nc[nH]c3=O)N12 | > 100 | > 100 | > 100 |  | > 100 | > 100 | > 100 | > 100 | > 100 | > 100 | > 100 | > 100 | > 100 | > 100 | > 100 |  | > 100 |  |  | 
12 | COC(=O)C(C)(C)[C@@H]1OC(=O)N(S(=O)(=O)c2c(C)cc(C)cc2C)[C@H]1C(C)C | > 100 | > 100 | > 100 | > 100 | 98.2 | > 100 | > 100 | > 100 | > 100 | > 100 | > 100 | > 100 | > 100 | > 100 | > 100 | > 100 | > 100 |  |  | 
13 | COc1cc2c(cc1OCCCOS(C)(=O)=O)N=C[C@@H]1CCCN1C2=O | > 100 | > 100 | > 100 | > 100 | > 100 | > 100 | > 100 | > 100 | > 100 | > 100 | > 100 | > 100 | > 100 | > 100 | > 100 | > 100 | > 100 | 94.7 | 52.8 | 
14 | CC(=NNC(=S)Nc1cccc(C)c1)c1cccc(C(C)=NNC(=S)Nc2cccc(C)c2)n1 | 38.5 | 93.3 | > 100 | > 100 | 63.2 | 59.3 | > 100 | 26.8 | > 100 | 61.1 | 69.2 | > 100 | 49.2 | 87.1 | 86.3 | > 100 | > 100 |  |  | 
15 | C=C(C)[C@@]1(O)CCCC[C@@H]1CC(Sc1ccccc1)Sc1ccccc1 | 31 | 53.9 | 32.4 | > 100 | 18.9 | 35.1 | 33.9 |  | 29.9 | 29.2 | 30 | > 100 | 26.2 | 34.4 | 31.5 | 29.4 | 35.1 |  |  | 
16 | O=C(CC(C(=O)c1cccs1)c1ccsc1)c1ccccc1 (stereo not given) | > 100 | > 100 | > 100 | > 100 | > 100 | > 100 | > 100 | > 100 | 85.4 | > 100 | > 100 | > 100 |  | 66.2 | > 100 | > 100 | > 100 |  |  | 
17 | O=c1cc(CSc2c(-c3ccccc3)c(=O)n(-c3ccccc3)c(=S)n2-c2ccccc2)[nH]c(=O)[nH]1 | > 100 | > 100 | > 100 | > 100 |  | > 100 | > 100 | > 100 |  | > 100 | > 100 | > 100 |  | > 100 | > 100 | > 100 |  |  |  | > 100
18 | CN(C)CCCNc1ncnc2c1ncn2C1OC(CO)C(O)C1O (stereo not given) | > 100 | > 100 | > 100 | > 100 | > 100 | > 100 | > 100 | > 100 | > 100 | > 100 |  | > 100 | > 100 | > 100 | > 100 | > 100 |  |  |  | > 100
19 | CCOC(=O)C1(C(=O)OCC)C[C@@H](C)[C@@H](O)C1 | > 100 | > 100 | > 100 | > 100 | > 100 | > 100 | > 100 | > 100 | > 100 | > 100 | > 100 | > 100 | > 100 | > 100 | > 100 | > 100 | > 100 |  |  | 
20 | CCOC(=O)C1C(C)C2(C#N)C(=N)OC1(C)C2(C#N)C#N (stereo not given) | > 100 | > 100 | > 100 | > 100 | 97.1 | > 100 | 43.8 |  | > 100 | 92.7 | > 100 |  | > 100 | > 100 | > 100 |  | > 100 |  |  | 
21 | CNC(=O)NCCN1CC2CCC(CC2)C1 | > 10 | > 10 | > 10 | > 10 |  | > 10 | > 10 | > 10 | > 10 | > 10 | > 10 | > 10 | > 10 | > 10 | > 10 | > 10 | > 10 |  |  | 
22 | O=C(O)c1nc2ccc(C(F)(F)F)cc2nc1NCc1ccc(Cl)c(Cl)c1 | 37.4 | 28.3 | 28.8 | 32.5 | 32.2 | 33.8 | > 100 | 24.6 | 32.4 |  | 39.1 | > 100 |  | 29.7 | 26.2 | 30.8 |  |  |  | 33.1
23 | O=C1CC2(CCC3=C(O2)c2ccccc2NC(=O)C3)C(=O)c2ccccc2N1 (stereo not given) | > 100 | > 100 | > 100 | > 100 |  | > 100 | > 100 | > 100 | > 100 | > 100 | > 100 | > 100 | > 100 | > 100 | > 100 | > 100 |  |  |  | 
24 | Clc1ccc(CCn2cncn2)cc1 | > 100 | > 100 | > 100 | > 100 | > 100 | > 100 | > 100 | > 100 | > 100 | > 100 | > 100 | > 100 | > 100 | > 100 | > 100 | > 100 |  |  |  | 
25 | CCSc1cc2c(cc1O)CC[C@@H]1[C@@H]2CC[C@]2(C)[C@@H](O)CC[C@@H]12 | 32.3 | 25.2 | 35.1 | 27.7 | 24.3 | 21.9 | > 100 |  | 44.3 | 39.2 | 29.6 | 30.8 | 23.8 | 15.5 | 30.1 | 19.2 | 17.9 |  |  | 
26 | O=C(c1nc2ccccc2[nH]c1=O)C(O)c1ccco1 (stereo not given) | > 100 | > 100 | > 100 | > 100 | > 100 | > 100 | > 100 | > 100 | > 100 | > 100 | > 100 | > 100 | > 100 | > 100 | > 100 | > 100 |  |  |  | 
27 | N#CC1=C(c2ccccc2)C(=C2Nc3ccccc3N2)C2S/C(=C\c3ccccc3)C(=O)N2C1=N (stereo not given) | 20.5 | 5.54 | 11.4 | 4.76 | 2.67 | 15.1 |  | 3.37 | 4.49 |  | 3.77 | 6.66 | 4.07 | 12.9 | 3.74 | 10.2 |  |  |  | 
28 | CCOC(=O)Cn1c(=O)c2nc(SC)sc2n(-c2ccccc2)c1=S | > 100 | 29.3 | > 100 | 11.5 | 21 | 94.9 | > 100 | 97.7 | > 100 | 52.2 | 12.5 | > 100 | 60.2 | > 100 | 15 | 99.4 | 34.4 |  |  | 
29 | C=CCN1COc2c(cc3c4c(cccc24)C(=O)O3)C1 | 33.1 | > 100 | 35.5 | 36.8 | 30.5 | > 100 | 97.1 | 72.5 | 47 | > 10 | 77.6 | 44.8 | > 10 | > 100 | 40.8 | > 100 |  |  |  | 
